Reference: patent US8895568B2, “Compositions comprising substituted pteridines as agrochemicals” (Dow AgroSciences LLC, priority 2009, dated 2014)

Key:
Assay type in all cases: in vivo
[1] = system: Colletotricum lagenarium; test: Cucumber Anthracnose (COLLLA), foliar spray, percent disease control; conditions: foliar
[2] = system: Pseudoperonospora cubensis; test: Cucumber Downy Mildew (PSPECU), foliar spray, percent disease control; conditions: foliar, read-out: PSPECU percent control
[3] = system: Cochliobolus sativus; test: Spot Blotch of Wheat (COCHSA), foliar spray, percent disease control; conditions: Bipolaris sorokiniana, foliar; read-out: COCHSA percent control
[4] = system: DROSME, AEDSAE, LAPHEG, or HELIVI; test: Insecticidal activity, active if any of DROSME, AEDSAE, LAPHEG or HELIVI was controlled at 80% or more; conditions: read-out: >80% mortality on any insect species @ 4000 ppm

Row | SMILES | pest or weed control at 200 µg/mL [1] [%] | pest or weed control at 200 µg/mL [2] [%] | pest or weed control at 200 µg/mL [3] [%] | pest or weed control at 4000 ppm [4] [%]
1 | FC(F)(F)c1nc(Oc2ccc(CCNc3ncnc4nccnc34)cc2)sc1Cl [Compound 128] | 0 to 49 | 80 to 100 | 0 to 49 | > 80
2 | Cc1cc(Oc2cc(C(F)(F)F)ccn2)ccc1CCNc1ncnc2nccnc12 [Compound 129] | 50 to 79 | 80 to 100 | 50 to 79 | > 80
3 | COc1cc(CCNc2ncnc3nccnc23)ccc1Oc1ncc(C(F)(F)F)cc1F [Compound 130] | 0 to 49 | 80 to 100 | 0 to 49 | > 80
4 | COc1ccc(CCNc2ncnc3nc(C)c(C)nc23)cc1 [Compound 131] | 0 to 49 | 80 to 100 | 0 to 49 | > 80
5 | CC(C)c1ccc(Oc2ccc(CCNc3ncnc4nccnc34)cc2)cc1 [Compound 132, {2-[4-(4-Isopropylphenoxy)-phenyl]-ethyl}-pteridin-4-yl-amine] | 0 to 49 | 80 to 100 | 0 to 49 | > 80
6 | Cc1ccc(Oc2ccc(CCNc3ncnc4nccnc34)cc2)cc1 [Compound 136] | 50 to 79 | 80 to 100 | 0 to 49 | > 80
7 | CCOC(=O)c1ccc(Oc2ccc(CCNc3ncnc4nccnc34)cc2)nc1 [Compound 137] | 0 to 49 | 0 to 49 | 0 to 49 | > 80
8 | Fc1nc(Oc2ccc(CCNc3ncnc4nccnc34)cc2)c(F)c(C(F)(F)F)c1F [Compound 138, Pteridin-4-yl-{2-[4-(3,5,6-trifluoro-4-trifluoromethyl-pyridin-2-yloxy)-phenyl]-ethyl}-amine] | 80 to 100 | 80 to 100 | 0 to 49 | > 80
9 | c1ccc(COc2ccc(CCOc3ccc(CCNc4ncnc5nccnc45)cc3)cc2)cc1 [Compound 140, (2-{4-[2-(4-Benzyloxy-phenyl)-ethoxy]-phenyl}-ethyl)-pteridin-4-yl-amine] | 50 to 79 | 80 to 100 | 0 to 49 | > 80
10 | Cc1cc(CCNc2ncnc3nccnc23)ccc1Oc1ccc(C(F)(F)F)cn1 [Compound 141] | 50 to 79 | 80 to 100 | 0 to 49 | > 80
11 | Cc1cc(CCNc2ncnc3nccnc23)ccc1Oc1cncc(Cl)c1C#N [Compound 142] | 0 to 49 | 80 to 100 | 0 to 49 | > 80
12 | Cc1cc(CCNc2ncnc3nccnc23)ccc1Oc1ncc(C(F)(F)F)cc1F [Compound 143] | 0 to 49 | 80 to 100 | 0 to 49 | > 80
13 | Cc1c(CCNc2ncnc3nccnc23)ccc(Oc2ccc(C(F)(F)F)cn2)c1C [Compound 144] | 0 to 49 | 80 to 100 | 0 to 49 | > 80
14 | Cc1c(CCNc2ncnc3nccnc23)ccc(Oc2cc(C(F)(F)F)ccn2)c1C [Compound 145] | 50 to 79 | 80 to 100 | 0 to 49 | > 80
15 | CCc1ncnc(Oc2ccc(CCNc3ncnc4nccnc34)cc2)c1Cl [Compound 146] | 50 to 79 | 80 to 100 | 0 to 49 | > 80
